Source: US12552694B2, “Use of trivalent metals to enhance aquatic pesticide efficacy, surface water, and sediment quality while minimizing risk to aquatic biota” (SePRO Corporation, priority 2022, dated 2026)
Like-named read-outs stand apart in the source and are kept apart here.

Assays:
[1] = Example 1: capacity of additives to bind dissolved La and Ce (ICP-OES); type: physicochemical
[2] = Example 4: bound La and Ce over time and final pH (FIG. 1); type: physicochemical; conditions: after the final samples (30 minutes), continuously stirred; control 5.6
duckweed (Lemna spp.) = experiment: Example 7: duckweed plant coverage (Canopeo) after herbicides with and without La/Ce; type: in vivo; conditions: for Plant coverage, 3 Days Post: 3 days post treatment; for Plant coverage, 5 Days Post: 5 days post treatment; for Plant coverage, 7 Days Post: 7 days post treatment; for Plant coverage, Pre-Treat.: prior to treatments (baseline)
duckweed = conditions: 24 hours
Method: In one exemplary experiment, 16-oz cups were filled with 400 mL of well water containing approximately 100 μg-P/L as phosphate. One cup was left as the no biomass control and approximately 8 g (±0.5 g) of actively growing duckweed were added to the other cups. One cup was left as a control and diquat (as Weedtrine® D) was added to each of the other cups at the following rates: 50 μg/L. 100 μg/L, 200 μg/L, and 300 μg/L. These samples were then placed under artificial lighting with a scheduled 16-hour light period and 8-hour dark period. […] Samples then were briefly stirred and allowed to sit under the lighting. After 2 hours, water samples were collected with a syringe, filtered with a 0.22 μm nylon filter, acidified with nitric acid, and analyzed for lanthanum and cerium concentration.

[3] = test sample: La/Ce stock in 50 mL deionized water with 90-110 mg additive

Compound: O=C([O-])[O-].[Ca+2] [Calcium carbonate, calcium carbonate]
- pH [1]: 7.5

Compound: [Ca+2].[OH-].[OH-] [Calcium hydroxide, calcium hydroxide]
- pH of beaker [2]: 8.7 (±0.1)
- pH [1]: 14

Compound: Cc1nn(-c2cc(CC(Cl)C(=O)O)c(Cl)cc2F)c(=O)n1C(F)F (centres unmarked) [Carfentrazone only, carfentrazone]
- % Change in plant coverage (duckweed (Lemna spp.); 3 Days Post vs pre-treatment): 13%
- % Change in plant coverage (duckweed (Lemna spp.); 5 Days Post vs pre-treatment): −29%
- % Change in plant coverage (duckweed (Lemna spp.); 7 Days Post vs pre-treatment): −17%
- Plant coverage, 3 Days Post (duckweed (Lemna spp.)): 39%
- Plant coverage, 5 Days Post (duckweed (Lemna spp.)): 24%
- Plant coverage, 7 Days Post (duckweed (Lemna spp.)): 29%
- Plant coverage, Pre-Treat. (duckweed (Lemna spp.)): 34%

Compound: c1cc[n+]2c(c1)-c1cccc[n+]1CC2 [Diquat only, diquat]
- % Change in plant coverage (duckweed (Lemna spp.); 3 Days Post vs pre-treatment): −75%
- % Change in plant coverage (duckweed (Lemna spp.); 5 Days Post vs pre-treatment): −89%
- % Change in plant coverage (duckweed (Lemna spp.); 7 Days Post vs pre-treatment): −92%
- Plant coverage, 3 Days Post (duckweed (Lemna spp.)): 10%
- Plant coverage, 5 Days Post (duckweed (Lemna spp.)): 4%
- Plant coverage, 7 Days Post (duckweed (Lemna spp.)): 3%
- Plant coverage, Pre-Treat. (duckweed (Lemna spp.)): 40%
- Perceived injury (duckweed; 50 μg/L diquat): 20%
- Perceived injury (duckweed; 100 μg/L diquat): 40%
- Perceived injury (duckweed; 200 μg/L diquat): 50%
- Perceived injury (duckweed; 300 μg/L diquat): 80%

Compound: NC(=O)CC[C@H](N)C(=O)O [Glutamine, glutamine]
- pH [1, 3]: 7

Compound: [O]=[Mg] [Magnesium oxide, magnesium oxide]
- pH of beaker [2]: 8.0 (±0.1)
- pH [1]: 7.5

Compound: O.O=C([O-])C(=O)[O-].[K+].[K+] [Potassium oxalate (monohydrate), potassium oxalate (monohydrate)]
- pH [1]: 7

Compound: C=CC(=O)[O-].[Na+] [Sodium acrylate, sodium acrylate]
- pH [1]: 7

Compound: O=C([O-])CC(O)(CC(=O)[O-])C(=O)[O-].[Na+].[Na+].[Na+] [Sodium citrate, sodium citrate]
- pH [1]: 8

Compound: [Na+].[OH-] [Sodium hydroxide, sodium hydroxide]
- pH [1]: 14

Compound: O=[Si]([O-])[O-].[Na+].[Na+] [Sodium metasilicate (anhydrous), sodium metasilicate (anhydrous)]
- pH [1, 3]: 13

Compound: O=C([O-])C(O)C(O)C(=O)[O-].[Na+].[Na+] (centres unmarked) [Sodium tartrate, sodium tartrate]
- pH [1]: 6.5

Compound: copper ethanolamine [Copper ethanolamine only]
- % Change in plant coverage (duckweed (Lemna spp.); 3 Days Post vs pre-treatment): −2%
- % Change in plant coverage (duckweed (Lemna spp.); 5 Days Post vs pre-treatment): −89%
- % Change in plant coverage (duckweed (Lemna spp.); 7 Days Post vs pre-treatment): −89%
- Plant coverage, 3 Days Post (duckweed (Lemna spp.)): 35%
- Plant coverage, 5 Days Post (duckweed (Lemna spp.)): 4%
- Plant coverage, 7 Days Post (duckweed (Lemna spp.)): 4%
- Plant coverage, Pre-Treat. (duckweed (Lemna spp.)): 35%

Compound: fluridone [Fluridone only]
- % Change in plant coverage (duckweed (Lemna spp.); 3 Days Post vs pre-treatment): −8%
- % Change in plant coverage (duckweed (Lemna spp.); 5 Days Post vs pre-treatment): −15%
- % Change in plant coverage (duckweed (Lemna spp.); 7 Days Post vs pre-treatment): −14%
- Plant coverage, 3 Days Post (duckweed (Lemna spp.)): 23%
- Plant coverage, 5 Days Post (duckweed (Lemna spp.)): 22%
- Plant coverage, 7 Days Post (duckweed (Lemna spp.)): 22%
- Plant coverage, Pre-Treat. (duckweed (Lemna spp.)): 25%
